The target of this test is T1, Bovine lens aldose reductase (Bos taurus, UniProt P16116).
T1 construct: Bovine lens aldose reductase was separated and partially purified; from tissue; host or cells: bovine lens
In words: Inhibition of Aldose reductase. It counts as biochemical. As to conditions: for inhibition at 5 µg/mL: read-out: Inhibition at 5 μg/ml. Here is the method: Bovine lens aldose reductase was separated and partially purified by the method of S. Hyman and J. H. Kinoshita [J. Biol. Chem., 240, 877 (1965)] and K. Inagaki, I. Miwa and J. Okuda [Arch. Biochem. Biophys., 316, 337 (1982)], and its activity was determined photometrically by the method of Varma et al. [Biochem. Pharmac., 25, 2505 (1976)]. […]

pIC50: −log10 of the molar value.

Take `CC(COc1ccc(CC2SC(=O)NC2=O)cc1)NCC(O)COc1ccc(-c2ccccc2)cc1` (centres unmarked) [Example 34, 5-{4-[2-(3-4'-Phenylphenoxy-2-hydroxypropylamino)propoxy]benzyl}thiazolidine-2,4-dione]: the pIC50 was 5.43 and the inhibition at 5 µg/mL turned out to be 62%.
Turning to `COc1ccc(OCC2CN(C(C)COc3ccc(CC4SC(=O)NC4=O)cc3)C(=O)O2)cc1` (centres unmarked) [31 (polar), 5-{4-[2-(5-4'-Methoxyphenoxymethyl-2-oxooxazolidin-3-yl)propoxy]benzyl}thiazolidine-2,4-dione], the pIC50 is 6.06 and the inhibition at 5 µg/mL was determined as 88.1%.
As for `CC(COc1ccc(CC2SC(=O)NC2=O)cc1)N1CC(COCc2cccc(Cl)c2)OC1=O` (centres unmarked) [Example 42, 5-{4-[2-(5-3'-Chlorobenzyloxymethyl-2-oxooxazolidin-3-yl)propoxy]benzyl}thiazolidine-2,4-dione], the pIC50 is 5.73 and the inhibition at 5 µg/mL turned out to be 74%.
On to `CC(COc1ccc(CC2SC(=O)NC2=O)cc1)N1CC(COc2ccccc2)OC1=O` (centres unmarked) [Example 4, 5-{4-[2-(5-Phenoxymethyl-2-oxooxazolidin-3-yl)propoxy]benzyl}thiazolidine-2,4-dione], for which the negative logarithm of the IC50 (pIC50) is 5.62 and the inhibition at 5 µg/mL was 84.5%.
Take `CC(CSc1ccc(CC2SC(=O)NC2=O)cc1)N1CC(COc2cccc(Cl)c2)OC1=O` (single isomer, unassigned) [10 (less polar), 5-{4-[2-(5-3'-Chlorophenoxymethyl-2-oxooxazolidin-3-yl)propylthio]benzyl}thiazolidine-2,4-dione]: the negative logarithm of the IC50 (pIC50) is 5.40 and the inhibition at 5 µg/mL worked out at 60.1%.
`CC(COc1ccc(CC2SC(=O)NC2=O)cc1)N1CC(COCc2cccc(Cl)c2)OC1=S` (centres unmarked) [Example 43, 5-{4-[2-(5-3'-Chlorobenzyloxymethyl-2-thioxooxazolidin-3-yl)propoxy]benzyl}thiazolidine-2,4-dione]: the negative logarithm of the IC50 (pIC50) was 5.93 and the inhibition at 5 µg/mL amounted to 65.9%.
`CC(CSc1ccc(CC2SC(=O)NC2=O)cc1)N1CC(COc2cccc(Cl)c2)OC1=O` (centres unmarked) [10 (polar), 5-{4-[2-(5-3'-Chlorophenoxymethyl-2-oxooxazolidin-3-yl)propylthio]benzyl}thiazolidine-2,4-dione]: the pIC50 is 6.10 and the inhibition at 5 µg/mL is 88.3%.
For the compound `CCC(COc1ccc(CC2SC(=O)NC2=O)cc1)N1CC(COc2cccc(Cl)c2)OC1=O` (single isomer, unassigned) [47 (less polar), 5-{4-[2-(5-3'-Chlorophenoxymethyl-2-oxooxazolidin-3-yl)butoxy]benzyl}thiazolidine-2,4-dione], the pIC50 was 5.50 and the inhibition at 5 µg/mL was 57.6%.
`CC(COc1ccc(CC2SC(=O)NC2=O)cc1)N1CC(COCCc2ccccc2)OC1=O` (centres unmarked) [Example 23, 5-{4-[2-(5-2'-Phenylethoxymethyl-2-oxooxazolidin-3-yl)propoxy]benzyl}thiazolidine-2,4-dione]: the negative logarithm of the IC50 (pIC50) was 5.48 and the inhibition at 5 µg/mL stood at 70.7%.
Regarding `CC(COc1ccc(CC2SC(=O)NC2=O)cc1)NCC(O)COc1cccc(N(C)C)c1` (centres unmarked) [Example 32, 5-{4-[2-(3-3'-Dimethylaminophenoxy-2-hydroxypropylamino)propoxy]benzyl}thiazolidine-2,4-dione], the pIC50 is 5.21 and the inhibition at 5 µg/mL came to 54.6%.
As to `CC(COc1ccc(CC2SC(=O)NC2=O)cc1)N1CC(COCCCCCc2ccccc2)OC1=O` (centres unmarked) [Example 26, 5-{4-[2-(5-5'-Phenylpentyloxymethyl-2-oxooxazolidin-3-yl)propoxy]benzyl}thiazolidine-2,4-dione], the pIC50 is 5.98 and the inhibition at 5 µg/mL turned out to be 74.2%.
For the compound `CCC(COc1ccc(CC2SC(=O)NC2=O)cc1)NCC(O)COc1cccc(Cl)c1` (centres unmarked) [Example 46, 5-{4-[2-(3-3'-Chlorophenoxy-2-hydroxypropylamino)butoxy]benzyl}thiazolidine-2,4-dione], the pIC50 was 5.22 and the inhibition at 5 µg/mL was determined as 61%.
In the same order, the values of `CC(COc1ccc(CC2SC(=O)NC2=O)cc1)N1CC(COCCCc2ccccc2)OC1=O` (single isomer, unassigned) [24 (less polar), 5-{4-[2-(5-3'-Phenylpropoxymethyl-2-oxooxazolidin-3-yl)propoxy]benzyl}thiazolidine-2,4-dione] are 5.71 and 71.7%.
For `CC(COc1ccc(CC2SC(=O)NC2=O)cc1)N1CC(COc2cccc(N(C)C)c2)OC1=O` (centres unmarked) [Example 33, 5-{4-[2-(5-3'-Dimethylaminophenoxymethyl-2-oxooxazolidin-3-yl)propoxy]benzyl}thiazolidine-2,4-dione], the pIC50 is 6.19 and the inhibition at 5 µg/mL stood at 85.5%.
`CC(COc1ccc(CC2SC(=O)NC2=O)cc1)NCC(O)COCCCCCCCCc1ccccc1` (centres unmarked) [Example 21, 5-{4-[2-(3-8'-Phenyloctyloxy-2-hydroxypropylamino)propoxy]benzyl}thiazolidine-2,4-dione]: the pIC50 was 5.34 and the inhibition at 5 µg/mL stood at 58.7%.
For `O=C1NC(=O)C(Cc2ccc(OCCCCN3CC(COc4cccc(Cl)c4)OC3=O)cc2)S1` (centres unmarked) [Example 54, 5-{4-[4-(5-3'-Chlorophenoxymethyl-2-oxooxazolidin-3-yl)butoxy]benzyl}thiazolidine-2,4-dione], the negative logarithm of the IC50 (pIC50) is 5.70 and the inhibition at 5 µg/mL amounted to 69.1%.
Turning to `CC(COc1ccc(CC2SC(=O)NC2=O)cc1)N1CC(CN(C)c2ccccc2)OC1=O` (centres unmarked) [Example 40, 5-[4-{2-[5-(N-Methyl-N-phenylaminomethyl)-2-oxooxazolidin-3-yl]propoxy}benzyl]thiazolidine-2,4-dione], the negative logarithm of the IC50 (pIC50) was 5.73 and the inhibition at 5 µg/mL stood at 80.9%.
Take `CCCC(COc1ccc(CC2SC(=O)NC2=O)cc1)N1CC(COc2cccc(Cl)c2)OC1=O` (centres unmarked) [Example 50, 5-{4-[2-(5-3'-Chlorophenoxymethyl-2-oxooxazolidin-3-yl)pentyloxy]benzyl}thiazolidine-2,4-dione]: the negative-log IC50 (pIC50) was 6.21.
For `CC(COc1ccc(CC2SC(=O)NC2=O)cc1)N1CC(COCCCCc2ccccc2)OC1=O` (single isomer, unassigned) [25 (less polar), 5-{4-[2-(5-4'-Phenylbutoxymethyl-2-oxooxazolidin-3-yl)propoxy]benzyl}thiazolidine-2,4-dione], the pIC50 was 5.41 and the inhibition at 5 µg/mL came out at 57.1%.
In the case of `CC(COc1ccc(CC2SC(=O)NC2=O)cc1)N1CC(COCCCCCCc2ccccc2)OC1=O` (centres unmarked) [Example 27, 5-{4-[2-(5-6'-Phenylhexyloxymethyl-2-oxooxazolidin-3-yl)propoxy]benzyl}thiazolidine-2,4-dione], the negative logarithm of the IC50 (pIC50) was 5.45 and the inhibition at 5 µg/mL stood at 54.9%.
For `CC(COc1ccc(CC2SC(=O)NC2=O)cc1)N1CC(COc2ccccc2)OC1=S` (centres unmarked) [Example 49, 5-{4-[2-(5-Phenoxymethyl-2-thioxooxaolidin-3-yl)propoxy]benzyl}thiazolidine-2,4-dione], in that order: 5.98 and 77.8%.
Take `CC(COc1ccc(CC2SC(=O)NC2=O)cc1)N1CC(COc2cccc(F)c2)OC1=O` (centres unmarked) [Example 30, 5-{4-[2-(5-3'-Fluorophenoxymethyl-2-oxooxazolidin-3-yl)propoxy]benzyl}thiazolidine-2,4-dione]: the pIC50 is 5.42 and the inhibition at 5 µg/mL stood at 68.6%.
`CC(C)(COc1ccc(CC2SC(=O)NC2=O)cc1)N1CC(COc2cccc(Cl)c2)OC1=O` (centres unmarked) [Example 52, 5-{4-[2-(5,3'-Chlorophenoxymethyl-2-oxooxazolidin-3-yl)-2-methylpropoxy]benzyl}thiazolidine-2,4-dione]: the negative logarithm of the IC50 (pIC50) was 5.73 and the inhibition at 5 µg/mL turned out to be 72.8%.
In the case of `CC(COc1ccc(CC2SC(=O)NC2=O)cc1)NCC(O)COc1cccc(Cl)c1` (centres unmarked) [Example 2, 5-{4-[2-(3-3'-Chlorophenoxy-2-hydroxypropylamino)propoxy]benzyl}thiazolidine-2,4-dione], the pIC50 is 5.22 and the inhibition at 5 µg/mL stood at 63.2%.
Turning to `CC(COc1ccc(CC2SC(=O)NC2=O)cc1)N1CCOC(COc2cccc(Cl)c2)C1` (centres unmarked) [Example 55, 5-{4-[2-(2-3'-Chlorophenoxymethylmorpholino)propoxy]benzyl}thiazolidine-2,4-dione], the negative logarithm of the IC50 (pIC50) is 5.54 and the inhibition at 5 µg/mL was 62.7%.
For `O=C1NC(=O)C(Cc2ccc(OCCCN3CC(COc4ccccc4)OC3=O)cc2)S1` (centres unmarked) [Example 53, 5-{4-[3-(5-Phenoxymethyl-2-oxooxazolidin-3-yl)propoxy]benzyl}thiazolidine-2,4-dione], in that order: 5.62 and 77.6%.
In the same order, the values of `CC(COc1ccc(CC2SC(=O)NC2=O)cc1)NCC(O)COCCCCCc1ccccc1` (centres unmarked) [Example 16, 5-{4-[2-(3-5'-Phenylpentyloxy-2-hydroxypropylamino)propoxy]benzyl}thiazolidine-2,4-dione] are 5.18 and 59.2%.
For `CC(COc1ccc(CC2SC(=O)NC2=O)cc1)NCC(O)CSc1ccccc1` (centres unmarked) [Example 37, 5-{4-[2-(3-Phenylthio-2-hydroxypropylamino)propoxy]benzyl}thiazolidine-2,4-dione], the pIC50 was 5.06 and the inhibition at 5 µg/mL was determined as 55.2%.
Turning to `CC(COc1ccc(CC2SC(=O)NC2=O)cc1)N1CC(CSc2ccccc2)OC1=O` (centres unmarked) [Example 38, 5-{4-[2-(5-Phenylthiomethyl-2-oxooxazolidin-3-yl)propoxy]benzyl}thiazolidine-2,4-dione], the pIC50 is 5.82 and the inhibition at 5 µg/mL came out at 80.1%.
In the same order, the values of `CC(COc1ccc(CC2SC(=O)NC2=O)cc1)N1CC(COCCCCc2ccccc2)OC1=O` (centres unmarked) [25 (polar), 5-{4-[2-(5-4'-Phenylbutoxymethyl-2-oxooxazolidin-3-yl)propoxy]benzyl}thiazolidine-2,4-dione] are 6.37 and 82%.

Usually pIC50 stands for the IC50 on a negative log10 scale, so that one unit is a factor of ten. A higher pIC50 goes with a small IC50.

The values are drawn from patent US5578620A, “Thiazolidine and oxazolidine derivatives, their preparation and their medical use” (Sankyo Company, Limited, priority 1994, dated 1996).
